Literature values as cited in patent EP2151446B1, “Process for the preparation of bidentate schiff base ruthenium catalysts containing a salicylaldimine-type ligand” (Rimtec Corporation, priority 2008, dated 2010).

conditions: in water

pKb, about 3.69:
O=C([O-])[O-].[Cu+2] [CuCO3], O=C([O-])[O-].[K+].[K+] [Entry K2CO3], O=C([O-])[O-].[Li+].[Li+] [Li2CO3], O=C([O-])[O-].[Na+].[Na+] [Na2CO3]
